Source: paper PMC3237002, “Molecular Conversion of Muscarinic Acetylcholine Receptor M5 to Muscarinic Toxin 7 (MT7)-Binding Protein” (Toxins, 2011)
Changes are numbered by the printed parent chain.

Columns and labels:
[1] = target: T1, M5-ELY receptor construct (Homo sapiens, UniProt P08912, K175E/P179L/Q184Y); experiment: [3H]NMS dissociation rate, M5-ELY; format: binding
T1 construct: expressed in transfected cells; host or cells: Sf9 cells, recombinant baculovirus
T1 sequence (P08912 1-532 K175E/P179L/Q184Y): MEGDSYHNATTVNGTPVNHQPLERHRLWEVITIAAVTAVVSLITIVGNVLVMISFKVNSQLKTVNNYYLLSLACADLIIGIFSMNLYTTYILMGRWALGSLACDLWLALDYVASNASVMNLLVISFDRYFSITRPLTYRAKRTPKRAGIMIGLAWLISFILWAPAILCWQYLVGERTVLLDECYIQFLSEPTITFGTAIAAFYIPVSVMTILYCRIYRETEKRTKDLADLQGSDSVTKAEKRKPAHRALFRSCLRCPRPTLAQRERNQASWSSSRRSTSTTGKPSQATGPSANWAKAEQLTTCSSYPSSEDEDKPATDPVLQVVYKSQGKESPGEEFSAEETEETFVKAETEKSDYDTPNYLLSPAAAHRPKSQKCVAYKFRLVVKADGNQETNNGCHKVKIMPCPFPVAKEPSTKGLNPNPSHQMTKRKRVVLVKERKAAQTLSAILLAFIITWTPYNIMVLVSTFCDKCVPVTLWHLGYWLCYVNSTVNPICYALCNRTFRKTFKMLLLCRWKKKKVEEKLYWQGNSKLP
Method: (§1) The Infected cells from monolayer culture were harvested in phosphate-buffered saline solution, centrifuged 700× g and stored as pellets at −70 °C until use. For binding experiments the cells were resuspended in binding buffer (100 mM NaCl, 20 mM HEPES, 10 mM MgCl2, 1 mM EDTA, pH adjusted to 7.4) and homogenized with an Ultra-Turrax homogenizer. […] Atropine (10 μM) was used to determine nonspecific binding. […] Following this, dissociation was started by addition of 10 μM atropine with or without MT7. Aliquots were removed at regular intervals from 0 to 100 min. In testing the reversibility of MT7 binding, cell homogenates were first incubated with toxin in test tubes for 45 min, thereafter centrifuged 12,000 × g for 30 min and then resuspended in fresh buffer. […] All reactions were terminated by rapid filtration through prewashed GF/B filters followed by five washes with cold buffer containing 180 mM NaCl, 25 mM MgCl2, and 20 mM HEPES, pH 7.4, in a microplate harvester. Radioactivity on filters was determined in a TopCount microplate scintillation counter (PerkinElmer, Waltham, MA).

[2] = target: T2, M5-ELYE receptor construct (Homo sapiens, UniProt P08912, K175E/P179L/Q184Y/V474E); experiment: [3H]NMS dissociation rate, M5-ELYE; format: binding
T2 construct: expressed in transfected cells; host or cells: Sf9 cells, recombinant baculovirus
T2 sequence (P08912 1-532 K175E/P179L/Q184Y/V474E): T1 sequence (P08912 1-532 K175E/P179L/Q184Y) with V474E
Method: as §1

C[N+]1(C)[C@@H]2CC(OC(=O)[C@H](CO)c3ccccc3)C[C@H]1[C@@H]1O[C@@H]12 (some centres unmarked) [[^3H]NMS, [^3H]-N-methylscopolamine]
[3H]NMS dissociation rate, control [1]: 0.113 min⁻¹ | [3H]NMS dissociation rate, control [2]: 0.147 min⁻¹
